From patent US20250114345A1, “COMPOUNDS AND COMPOSITIONS AS CBP/P300 DEGRADERS AND USES THEREOF” (Oncopia Therapeutics, Inc. d/b/a/ SK Life Science Labs, priority 2023, published 2025)

What was measured:
p300 = target: T1, p300 (Homo sapiens, UniProt Q09472); experiment: P300 degradation, HiBit technology in A549 P300 HiBit cells (2 h); format: cell-based; details: 2 hrs post treatment; for Dmax: A549, A549 P300 HiBit cells; for DC50: A549 P300 HiBit cells
T1 construct: host or cells: A549 P300 HiBit cells
Procedure, shortened: (§1)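 Cells: A549 HiBiT-tagged lines, 0.2×10^4/well, F-12K + 10% HI-FBS, equilibrated overnight. Tx: serial dilution of cpd (10 mM DMSO stock). Readout: HiBiT lytic reagent, 10 min RT shaking, luminescence → potency, Dmax.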

CBP = target: T2, CBP (Homo sapiens, UniProt Q92793); experiment: CBP degradation, HiBit technology in A549 CBP HiBit cells (24 h); format: cell-based; details: 24 hrs post treatment
T2 construct: host or cells: A549 CBP HiBit cells
Procedure, shortened: as §1

T1 sequence (Q09472 whole entry): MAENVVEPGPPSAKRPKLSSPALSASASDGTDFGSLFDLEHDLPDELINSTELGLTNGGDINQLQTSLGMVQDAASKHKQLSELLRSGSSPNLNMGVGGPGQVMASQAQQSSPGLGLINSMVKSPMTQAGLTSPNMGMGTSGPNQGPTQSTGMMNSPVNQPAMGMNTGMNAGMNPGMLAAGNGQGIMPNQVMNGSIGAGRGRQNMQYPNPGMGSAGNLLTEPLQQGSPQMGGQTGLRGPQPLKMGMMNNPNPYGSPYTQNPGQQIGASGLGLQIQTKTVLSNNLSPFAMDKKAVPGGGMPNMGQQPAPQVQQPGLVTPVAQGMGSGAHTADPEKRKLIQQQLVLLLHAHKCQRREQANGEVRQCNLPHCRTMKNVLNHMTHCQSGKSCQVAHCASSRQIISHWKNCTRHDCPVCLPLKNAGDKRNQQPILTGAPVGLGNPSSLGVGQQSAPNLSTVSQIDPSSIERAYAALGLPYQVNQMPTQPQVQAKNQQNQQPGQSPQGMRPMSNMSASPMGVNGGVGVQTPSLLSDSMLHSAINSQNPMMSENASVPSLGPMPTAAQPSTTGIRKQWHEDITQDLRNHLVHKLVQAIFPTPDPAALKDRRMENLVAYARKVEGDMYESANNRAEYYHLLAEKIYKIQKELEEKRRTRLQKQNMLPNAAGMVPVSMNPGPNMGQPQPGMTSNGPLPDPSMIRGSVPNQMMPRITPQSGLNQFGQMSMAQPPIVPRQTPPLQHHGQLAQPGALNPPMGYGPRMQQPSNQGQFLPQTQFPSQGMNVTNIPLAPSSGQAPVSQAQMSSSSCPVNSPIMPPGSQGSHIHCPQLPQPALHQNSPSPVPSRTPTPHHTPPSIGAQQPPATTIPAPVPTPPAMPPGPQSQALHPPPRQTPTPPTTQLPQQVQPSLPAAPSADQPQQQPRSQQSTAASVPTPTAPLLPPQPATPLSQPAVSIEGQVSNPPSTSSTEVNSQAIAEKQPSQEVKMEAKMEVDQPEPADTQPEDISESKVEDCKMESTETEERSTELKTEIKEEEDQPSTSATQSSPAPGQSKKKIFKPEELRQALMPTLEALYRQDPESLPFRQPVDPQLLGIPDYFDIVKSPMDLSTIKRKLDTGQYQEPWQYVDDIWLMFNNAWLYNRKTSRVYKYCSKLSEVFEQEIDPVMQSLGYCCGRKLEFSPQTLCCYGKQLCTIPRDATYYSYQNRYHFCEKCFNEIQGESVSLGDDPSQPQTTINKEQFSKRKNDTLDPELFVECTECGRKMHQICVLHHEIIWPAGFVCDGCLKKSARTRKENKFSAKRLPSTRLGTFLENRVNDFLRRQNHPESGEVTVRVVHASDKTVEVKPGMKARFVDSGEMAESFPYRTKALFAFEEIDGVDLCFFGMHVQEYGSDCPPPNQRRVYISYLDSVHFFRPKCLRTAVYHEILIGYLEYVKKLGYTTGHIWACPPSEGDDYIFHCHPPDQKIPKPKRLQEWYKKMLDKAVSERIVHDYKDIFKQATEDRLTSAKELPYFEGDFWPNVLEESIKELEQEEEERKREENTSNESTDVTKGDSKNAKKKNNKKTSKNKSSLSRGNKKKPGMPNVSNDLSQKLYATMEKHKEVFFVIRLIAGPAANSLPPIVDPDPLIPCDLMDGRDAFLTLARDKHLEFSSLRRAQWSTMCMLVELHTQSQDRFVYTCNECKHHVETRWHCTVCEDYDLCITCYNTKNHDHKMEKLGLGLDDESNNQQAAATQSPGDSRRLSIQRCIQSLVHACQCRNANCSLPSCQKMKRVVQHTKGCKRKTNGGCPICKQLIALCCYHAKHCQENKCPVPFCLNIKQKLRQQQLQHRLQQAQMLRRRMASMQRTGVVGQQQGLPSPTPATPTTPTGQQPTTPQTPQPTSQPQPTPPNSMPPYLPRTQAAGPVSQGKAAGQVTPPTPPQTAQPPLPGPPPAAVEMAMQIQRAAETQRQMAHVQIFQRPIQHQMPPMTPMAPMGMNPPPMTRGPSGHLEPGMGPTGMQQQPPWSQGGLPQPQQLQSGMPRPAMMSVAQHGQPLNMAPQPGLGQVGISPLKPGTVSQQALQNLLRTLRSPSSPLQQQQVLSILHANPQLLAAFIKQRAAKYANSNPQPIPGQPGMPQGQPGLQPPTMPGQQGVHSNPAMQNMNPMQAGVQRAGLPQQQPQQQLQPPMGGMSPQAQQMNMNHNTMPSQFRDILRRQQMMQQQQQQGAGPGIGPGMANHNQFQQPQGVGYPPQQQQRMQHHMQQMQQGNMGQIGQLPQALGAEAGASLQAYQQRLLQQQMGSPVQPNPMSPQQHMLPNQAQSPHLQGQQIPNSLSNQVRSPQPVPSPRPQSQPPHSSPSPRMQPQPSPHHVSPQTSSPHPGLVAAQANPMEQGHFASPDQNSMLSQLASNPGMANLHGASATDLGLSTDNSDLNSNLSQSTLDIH
T2 sequence (Q92793 whole entry): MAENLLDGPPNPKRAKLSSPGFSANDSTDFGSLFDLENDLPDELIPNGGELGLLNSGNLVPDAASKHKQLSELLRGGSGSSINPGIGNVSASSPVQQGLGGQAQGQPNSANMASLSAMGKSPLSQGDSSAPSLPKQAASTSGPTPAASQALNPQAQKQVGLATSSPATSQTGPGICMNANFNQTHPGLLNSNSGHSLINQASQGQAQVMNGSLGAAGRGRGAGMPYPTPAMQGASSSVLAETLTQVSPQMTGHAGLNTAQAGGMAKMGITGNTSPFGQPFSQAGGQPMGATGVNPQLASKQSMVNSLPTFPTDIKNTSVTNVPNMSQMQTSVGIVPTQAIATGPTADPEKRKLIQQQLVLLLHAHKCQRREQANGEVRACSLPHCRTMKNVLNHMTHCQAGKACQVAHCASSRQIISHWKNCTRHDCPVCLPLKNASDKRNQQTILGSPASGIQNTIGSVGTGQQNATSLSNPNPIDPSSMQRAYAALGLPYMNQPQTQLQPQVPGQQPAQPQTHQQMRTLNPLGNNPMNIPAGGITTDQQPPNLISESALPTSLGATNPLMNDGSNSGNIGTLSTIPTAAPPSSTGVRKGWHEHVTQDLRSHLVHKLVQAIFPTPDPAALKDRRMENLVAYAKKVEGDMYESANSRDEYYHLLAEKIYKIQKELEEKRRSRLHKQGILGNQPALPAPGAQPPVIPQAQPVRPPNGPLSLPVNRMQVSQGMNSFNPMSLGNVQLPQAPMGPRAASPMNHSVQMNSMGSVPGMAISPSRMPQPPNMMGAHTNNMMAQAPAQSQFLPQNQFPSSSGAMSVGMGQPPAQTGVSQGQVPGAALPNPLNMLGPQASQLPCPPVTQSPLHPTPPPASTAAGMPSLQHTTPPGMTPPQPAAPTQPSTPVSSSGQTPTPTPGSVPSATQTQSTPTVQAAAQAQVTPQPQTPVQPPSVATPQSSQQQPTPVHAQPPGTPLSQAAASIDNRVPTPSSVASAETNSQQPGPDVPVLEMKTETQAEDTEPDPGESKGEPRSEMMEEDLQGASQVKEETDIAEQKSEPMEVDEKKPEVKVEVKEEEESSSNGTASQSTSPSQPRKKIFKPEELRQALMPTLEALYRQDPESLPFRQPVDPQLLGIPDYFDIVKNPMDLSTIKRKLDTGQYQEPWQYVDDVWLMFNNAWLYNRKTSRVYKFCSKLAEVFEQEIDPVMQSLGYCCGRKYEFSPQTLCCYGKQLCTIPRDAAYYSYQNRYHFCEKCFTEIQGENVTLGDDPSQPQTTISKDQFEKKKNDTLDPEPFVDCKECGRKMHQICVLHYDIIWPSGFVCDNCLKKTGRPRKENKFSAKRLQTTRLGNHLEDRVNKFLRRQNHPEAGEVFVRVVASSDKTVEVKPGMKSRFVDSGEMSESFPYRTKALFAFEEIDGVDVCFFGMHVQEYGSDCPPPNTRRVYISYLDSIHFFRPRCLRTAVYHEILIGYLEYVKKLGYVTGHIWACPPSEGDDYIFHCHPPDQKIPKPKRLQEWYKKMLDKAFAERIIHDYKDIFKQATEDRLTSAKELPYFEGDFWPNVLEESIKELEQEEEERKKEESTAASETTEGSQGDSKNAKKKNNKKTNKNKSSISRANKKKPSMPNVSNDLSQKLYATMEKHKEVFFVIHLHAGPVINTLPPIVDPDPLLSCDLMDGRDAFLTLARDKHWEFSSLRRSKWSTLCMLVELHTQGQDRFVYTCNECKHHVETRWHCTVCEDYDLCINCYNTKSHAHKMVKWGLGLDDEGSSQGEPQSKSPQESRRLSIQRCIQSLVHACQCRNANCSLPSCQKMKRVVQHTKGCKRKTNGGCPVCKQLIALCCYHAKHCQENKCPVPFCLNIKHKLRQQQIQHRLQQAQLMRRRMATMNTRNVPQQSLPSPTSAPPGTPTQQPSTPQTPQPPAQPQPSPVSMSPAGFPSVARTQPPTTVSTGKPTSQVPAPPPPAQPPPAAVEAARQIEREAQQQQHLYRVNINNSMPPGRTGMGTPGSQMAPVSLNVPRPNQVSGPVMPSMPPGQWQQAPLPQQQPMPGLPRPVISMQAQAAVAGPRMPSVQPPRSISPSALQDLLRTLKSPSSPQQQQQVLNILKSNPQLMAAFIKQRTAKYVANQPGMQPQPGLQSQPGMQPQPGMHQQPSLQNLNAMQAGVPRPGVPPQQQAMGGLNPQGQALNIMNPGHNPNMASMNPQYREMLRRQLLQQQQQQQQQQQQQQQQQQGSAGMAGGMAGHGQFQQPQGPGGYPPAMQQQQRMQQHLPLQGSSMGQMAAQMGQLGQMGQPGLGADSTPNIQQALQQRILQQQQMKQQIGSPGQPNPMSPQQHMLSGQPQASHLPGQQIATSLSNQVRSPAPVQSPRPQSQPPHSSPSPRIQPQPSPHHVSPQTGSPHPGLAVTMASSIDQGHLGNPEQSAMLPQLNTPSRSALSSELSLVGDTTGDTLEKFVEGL

SMILES | Dmax (p300) | DC50 (p300) | DC50 (CBP) | Dmax (CBP)
CCc1cc(N(C)c2ccc(-c3cnc(C(=O)NCC#Cc4cccc(NC5CCC(=O)NC5=O)c4)c(C)c3)nc2)c2cc(C)c(=O)n(C)c2c1 (stereo not drawn) [Example B16, N-(3-(3-((2,6-Dioxopiperidin-3-yl)amino)phenyl)prop-2-yn-1-yl)-5-((7-ethyl-1,3-dimethyl-2-oxo-1,2-dihydroquinolin-5-yl)(methyl)amino)-5′-methyl-[2,3′-bipyridine]-6′-carboxamide] | > 80% | 1 to 9.9 nM | 100 to 999 nM | 20 to 39%
Cc1cc2c(N3CCCc4nc(-c5ccc(C(=O)NCC#Cc6ccc7c(c6)c(C6CCC(=O)NC6=O)nn7C)nc5)ncc43)cc(C3CCOCC3)cc2n(C)c1=O (stereo not drawn) [Example B154, 5-(5-(1,3-dimethyl-2-oxo-7-(tetrahydro-2H-pyran-4-yl)-1,2-dihydroquinolin-5-yl)-5,6,7,8-tetrahydropyrido[3,2-d]pyrimidin-2-yl)-N-(3-(3-(2,6-dioxopiperidin-3-yl)-1-methyl-1H-indazol-5-yl)prop-2-yn-1-yl)picolinamide] | > 80% | 1 to 9.9 nM | 1 to 9.9 nM | 60 to 79%
Cc1cc(-c2ncc3c(n2)OCCN3c2ccc3c(c2)n(C)c(=O)n3C)cnc1C(=O)NCC#Cc1cc2c([C@H]3CCC(=O)NC3=O)cccc2o1 [Example A174, (R)-5-(5-(1,3-dimethyl-2-oxo-2,3-dihydro-1H-benzo [d]imidazol-5-yl)-6,7-dihydro-5H-pyrimido [4,5-b][1,4]oxazin-2-yl)-N-(3-(4-(2,6-dioxopiperidin-3-yl)benzofuran-2-yl)prop-2-yn-1-yl)-3-methylpicolinamide] | > 80% | 1 to 9.9 nM | > 1000 nM | < 20%
CN1CCN(c2nc(-c3cccc4cc(-c5ccc(C(=O)NCC#Cc6ccc7occ(C8CCC(=O)NC8=O)c7c6)nc5)ncc34)cc3c2n(C)c(=O)n3C)CC1 (stereo not drawn) [Example A102, 5-(8-(1,3-dimethyl-4-(4-methylpiperazin-1-yl)-2-oxo-2,3-dihydro-1H-imidazo[4,5-c]pyridin-6-yl)iso-quinolin-3-yl)-N-(3-(3-(2,6-dioxopiperidin-3-yl)benzofuran-5-yl)prop-2-yn-1-yl) picolinamide] | > 80% | < 1 nM | > 1000 nM | < 20%
Cc1cc(-c2ncc3c(n2)OCCN3c2cc(C)c3c(c2)n(C)c(=O)n3C)cnc1C(=O)NCC#Cc1ccc2occ(C3CCC(=O)NC3=O)c2c1 (stereo not drawn) [Example A88, N-(3-(3-(2,6-dioxo-piperidin-3-yl)benzofuran-5-yl)prop-2-yn-1-yl)-3-methyl-5-(5-(1,3,7-trimethyl-2-oxo-2,3-dihydro-1H-benzo [d]imidazol-5-yl)-6,7-dihydro-5H-pyrimido [4,5-b][1,4]oxazin-2-yl)picolinamide] | > 80% | > 1000 nM | > 1000 nM | < 20%
CNC(=O)c1c[nH]c2ccc(-c3cccc4cc(-c5ccc(C(=O)NCC#Cc6ccc7occ(C8CCC(=O)NC8=O)c7c6)nc5)ncc34)cc12 (stereo not drawn) [Example C1, 5-(3-(6-((3-(3-(2,6-dioxopiperidin-3-yl)benzofuran-5-yl)prop-2-yn-1-yl)carbamoyl)pyridin-3-yl)isoquinolin-8-yl)-N-methyl-1H-indole-3-carboxamide] | > 80% | 1 to 9.9 nM | > 1000 nM | < 20%
